Assays:
[1] = system: Mast/stem cell growth factor receptor Kit (Homo sapiens), P10721 [L576P]; settings: Compound concentration 1000.0 nM
[2] = system: Tyrosine-protein kinase ABL1 (Homo sapiens), P00519 [M351T]; settings: Compound concentration 1000.0 nM
[3] = target: Serine/threonine-protein kinase Nek5 (Homo sapiens) (UniProt Q6P3R8); settings: Compound concentration 1000.0 nM
[4] = system: Mast/stem cell growth factor receptor Kit (Homo sapiens), P10721 [V559D,T670I]; settings: Compound concentration 1000.0 nM
[5] = target: Ephrin type-B receptor 6 (Homo sapiens) (UniProt O15197); settings: Compound concentration 1000.0 nM
[6] = target: Dual specificity mitogen-activated protein kinase kinase 5 (Homo sapiens) (UniProt Q13163); settings: Compound concentration 1000.0 nM
Sequence of Dual specificity mitogen-activated protein kinase kinase 5 (Homo sapiens) (Q13163 whole entry): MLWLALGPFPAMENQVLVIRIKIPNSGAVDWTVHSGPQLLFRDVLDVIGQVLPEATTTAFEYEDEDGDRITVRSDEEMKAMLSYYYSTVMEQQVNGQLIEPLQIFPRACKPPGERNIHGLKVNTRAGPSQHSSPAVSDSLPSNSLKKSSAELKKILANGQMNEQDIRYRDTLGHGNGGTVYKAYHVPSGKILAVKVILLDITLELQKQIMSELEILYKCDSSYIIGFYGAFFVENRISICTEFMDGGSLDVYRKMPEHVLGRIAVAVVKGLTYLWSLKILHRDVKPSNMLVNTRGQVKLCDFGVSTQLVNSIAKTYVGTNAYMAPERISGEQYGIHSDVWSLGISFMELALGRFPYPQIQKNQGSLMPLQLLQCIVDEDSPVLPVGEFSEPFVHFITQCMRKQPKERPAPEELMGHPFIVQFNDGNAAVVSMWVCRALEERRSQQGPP

[7] = target: Serine/threonine-protein kinase tousled-like 1 (Homo sapiens) (UniProt Q9UKI8); settings: Compound concentration 1000.0 nM
[8] = target: Membrane-associated tyrosine- and threonine-specific cdc2-inhibitory kinase (Homo sapiens) (UniProt Q99640); settings: Compound concentration 1000.0 nM
Sequence of Membrane-associated tyrosine- and threonine-specific cdc2-inhibitory kinase (Homo sapiens) (Q99640 whole entry): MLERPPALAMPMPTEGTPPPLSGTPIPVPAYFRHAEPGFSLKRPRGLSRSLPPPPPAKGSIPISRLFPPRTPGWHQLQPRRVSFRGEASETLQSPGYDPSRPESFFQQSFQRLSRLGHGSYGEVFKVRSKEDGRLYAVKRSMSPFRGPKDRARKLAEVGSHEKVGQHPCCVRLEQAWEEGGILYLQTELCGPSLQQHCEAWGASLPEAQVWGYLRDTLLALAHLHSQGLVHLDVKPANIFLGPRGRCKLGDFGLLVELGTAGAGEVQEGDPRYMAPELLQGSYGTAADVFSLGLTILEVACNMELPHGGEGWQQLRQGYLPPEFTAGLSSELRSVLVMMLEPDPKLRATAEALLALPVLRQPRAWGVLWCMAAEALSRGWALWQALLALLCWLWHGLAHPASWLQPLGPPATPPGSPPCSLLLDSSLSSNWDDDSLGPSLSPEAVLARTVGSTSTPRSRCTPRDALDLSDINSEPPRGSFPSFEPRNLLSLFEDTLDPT

[9] = target: Sodium-dependent noradrenaline transporter (Homo sapiens) (UniProt P23975); settings: Compound concentration 10.0 uM
[10] = target: Wee1-like protein kinase 2 (Homo sapiens) (UniProt P0C1S8); settings: Compound concentration 1000.0 nM
[11] = target: Ribosomal protein S6 kinase alpha-4 (Homo sapiens) (UniProt O75676); settings: Compound concentration 1000.0 nM
Sequence of Ribosomal protein S6 kinase alpha-4 (Homo sapiens) (O75676 whole entry, looked up): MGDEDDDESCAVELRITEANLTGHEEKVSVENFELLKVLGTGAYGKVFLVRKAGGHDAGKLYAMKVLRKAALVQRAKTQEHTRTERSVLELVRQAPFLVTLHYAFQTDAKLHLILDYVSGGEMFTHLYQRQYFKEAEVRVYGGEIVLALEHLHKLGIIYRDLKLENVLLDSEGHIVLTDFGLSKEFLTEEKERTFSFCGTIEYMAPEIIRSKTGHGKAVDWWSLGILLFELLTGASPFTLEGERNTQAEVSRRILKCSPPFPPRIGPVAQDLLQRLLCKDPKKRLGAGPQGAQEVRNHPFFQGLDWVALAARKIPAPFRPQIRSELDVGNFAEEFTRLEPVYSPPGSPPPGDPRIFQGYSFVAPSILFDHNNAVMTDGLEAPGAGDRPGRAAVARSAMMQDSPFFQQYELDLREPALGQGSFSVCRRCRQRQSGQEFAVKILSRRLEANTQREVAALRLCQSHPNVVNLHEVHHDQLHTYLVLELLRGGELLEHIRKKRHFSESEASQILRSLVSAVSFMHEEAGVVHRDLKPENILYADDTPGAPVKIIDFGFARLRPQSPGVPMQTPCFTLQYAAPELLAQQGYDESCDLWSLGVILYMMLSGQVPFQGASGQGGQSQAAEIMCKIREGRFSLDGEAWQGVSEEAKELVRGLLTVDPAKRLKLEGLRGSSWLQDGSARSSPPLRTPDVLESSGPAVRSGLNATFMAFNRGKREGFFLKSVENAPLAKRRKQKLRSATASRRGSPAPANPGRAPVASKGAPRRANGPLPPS

[12] = system: Serine/threonine-protein kinase B-raf (Homo sapiens), P15056 [V600E]; settings: Compound concentration 1000.0 nM
[13] = target: Serine/threonine-protein kinase TBK1 (Homo sapiens) (UniProt Q9UHD2); settings: Compound concentration 1000.0 nM
[14] = target: Serine/threonine-protein kinase Nek9 (Homo sapiens) (UniProt Q8TD19); settings: Compound concentration 1000.0 nM
[15] = target: Serine/threonine-protein kinase ULK2 (Homo sapiens) (UniProt Q8IYT8); settings: Compound concentration 1000.0 nM
[16] = target: Ribosomal protein S6 kinase alpha-2 (Homo sapiens) (UniProt Q15349); settings: Compound concentration 1000.0 nM
[17] = target: Calcium-dependent protein kinase 1 (Plasmodium falciparum) (UniProt P62344); settings: Compound concentration 1000.0 nM
[18] = target: Mitogen-activated protein kinase kinase kinase 7 (Homo sapiens) (UniProt O43318); settings: Compound concentration 1000.0 nM
[19] = target: 5-hydroxytryptamine receptor 1E (Homo sapiens) (UniProt P28566); settings: Compound concentration 10.0 uM
Sequence of 5-hydroxytryptamine receptor 1E (Homo sapiens) (P28566 whole entry): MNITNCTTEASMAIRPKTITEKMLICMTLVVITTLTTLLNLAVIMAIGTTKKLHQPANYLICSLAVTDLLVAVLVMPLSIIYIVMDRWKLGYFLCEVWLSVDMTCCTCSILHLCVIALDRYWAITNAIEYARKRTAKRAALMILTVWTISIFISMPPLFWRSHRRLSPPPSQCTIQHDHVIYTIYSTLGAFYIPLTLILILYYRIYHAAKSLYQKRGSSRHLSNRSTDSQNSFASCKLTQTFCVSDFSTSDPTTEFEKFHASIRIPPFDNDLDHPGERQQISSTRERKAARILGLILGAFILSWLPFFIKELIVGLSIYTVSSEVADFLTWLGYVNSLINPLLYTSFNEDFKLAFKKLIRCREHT

[20] = target: Testis-specific serine/threonine-protein kinase 1 (Homo sapiens) (UniProt Q9BXA7); settings: Compound concentration 1000.0 nM
[21] = target: Tyrosine-protein kinase BTK (Homo sapiens) (UniProt Q06187); settings: Compound concentration 1000.0 nM
Sequence of Tyrosine-protein kinase BTK (Homo sapiens) (Q06187 whole entry): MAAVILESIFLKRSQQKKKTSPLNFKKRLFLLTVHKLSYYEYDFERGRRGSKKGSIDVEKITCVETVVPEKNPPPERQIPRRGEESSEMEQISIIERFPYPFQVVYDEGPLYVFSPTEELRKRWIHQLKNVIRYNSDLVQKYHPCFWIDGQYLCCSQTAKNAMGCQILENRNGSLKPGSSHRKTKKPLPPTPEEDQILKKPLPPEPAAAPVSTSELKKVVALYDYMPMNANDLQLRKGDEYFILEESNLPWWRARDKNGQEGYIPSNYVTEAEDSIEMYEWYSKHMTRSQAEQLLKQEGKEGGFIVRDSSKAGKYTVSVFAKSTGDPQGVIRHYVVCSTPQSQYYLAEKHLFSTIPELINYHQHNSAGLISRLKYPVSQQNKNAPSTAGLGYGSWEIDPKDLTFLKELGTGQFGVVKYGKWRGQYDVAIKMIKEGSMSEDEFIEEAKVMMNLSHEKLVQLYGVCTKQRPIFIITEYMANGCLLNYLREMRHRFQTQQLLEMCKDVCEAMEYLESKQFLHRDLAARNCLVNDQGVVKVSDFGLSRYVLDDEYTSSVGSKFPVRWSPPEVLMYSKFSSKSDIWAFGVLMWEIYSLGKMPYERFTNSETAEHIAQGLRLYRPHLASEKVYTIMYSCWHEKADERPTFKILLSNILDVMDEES

[22] = system: Receptor-type tyrosine-protein kinase FLT3 (Homo sapiens), P36888 [D835H]; settings: Compound concentration 1000.0 nM
[23] = target: MAP/microtubule affinity-regulating kinase 4 (Homo sapiens) (UniProt Q96L34); settings: Compound concentration 1000.0 nM
[24] = target: Phosphatidylinositol 3-kinase catalytic subunit type 3 (Homo sapiens) (UniProt Q8NEB9); settings: Compound concentration 1000.0 nM
[25] = target: Serine/threonine-protein kinase 32B (Homo sapiens) (UniProt Q9NY57); settings: Compound concentration 1000.0 nM
Sequence of Serine/threonine-protein kinase 32B (Homo sapiens) (Q9NY57 whole entry): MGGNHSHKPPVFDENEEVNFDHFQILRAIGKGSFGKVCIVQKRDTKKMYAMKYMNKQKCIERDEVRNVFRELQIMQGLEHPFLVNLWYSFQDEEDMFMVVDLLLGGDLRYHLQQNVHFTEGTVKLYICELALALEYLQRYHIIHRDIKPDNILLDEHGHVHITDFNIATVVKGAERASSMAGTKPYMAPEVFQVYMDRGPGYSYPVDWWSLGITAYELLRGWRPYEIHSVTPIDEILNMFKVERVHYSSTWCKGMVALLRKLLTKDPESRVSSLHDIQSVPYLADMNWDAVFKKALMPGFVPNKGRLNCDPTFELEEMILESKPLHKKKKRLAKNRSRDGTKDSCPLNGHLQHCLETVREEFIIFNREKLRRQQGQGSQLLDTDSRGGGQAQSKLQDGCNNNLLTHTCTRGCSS

[26] = target: Serine/threonine-protein kinase DCLK2 (Homo sapiens) (UniProt Q8N568); settings: Compound concentration 1000.0 nM
[27] = system: Epidermal growth factor receptor (Homo sapiens), P00533 [UNDEFINED MUTATION]; settings: Compound concentration 1000.0 nM
[28] = system: Receptor-type tyrosine-protein kinase FLT3 (Homo sapiens), P36888 [K663Q]; settings: Compound concentration 1000.0 nM
[29] = target: Serine/threonine-protein kinase DCLK1 (Homo sapiens) (UniProt O15075); settings: Compound concentration 1000.0 nM
[30] = target: Beta-adrenergic receptor kinase 1 (Homo sapiens) (UniProt P25098); settings: Compound concentration 1000.0 nM
[31] = target: Sigma non-opioid intracellular receptor 1 (Homo sapiens) (UniProt Q99720); settings: Compound concentration 10.0 uM
[32] = target: LIM domain kinase 1 (Homo sapiens) (UniProt P53667); settings: Compound concentration 1000.0 nM
Sequence of LIM domain kinase 1 (Homo sapiens) (P53667 whole entry, looked up, the tested form may be a part): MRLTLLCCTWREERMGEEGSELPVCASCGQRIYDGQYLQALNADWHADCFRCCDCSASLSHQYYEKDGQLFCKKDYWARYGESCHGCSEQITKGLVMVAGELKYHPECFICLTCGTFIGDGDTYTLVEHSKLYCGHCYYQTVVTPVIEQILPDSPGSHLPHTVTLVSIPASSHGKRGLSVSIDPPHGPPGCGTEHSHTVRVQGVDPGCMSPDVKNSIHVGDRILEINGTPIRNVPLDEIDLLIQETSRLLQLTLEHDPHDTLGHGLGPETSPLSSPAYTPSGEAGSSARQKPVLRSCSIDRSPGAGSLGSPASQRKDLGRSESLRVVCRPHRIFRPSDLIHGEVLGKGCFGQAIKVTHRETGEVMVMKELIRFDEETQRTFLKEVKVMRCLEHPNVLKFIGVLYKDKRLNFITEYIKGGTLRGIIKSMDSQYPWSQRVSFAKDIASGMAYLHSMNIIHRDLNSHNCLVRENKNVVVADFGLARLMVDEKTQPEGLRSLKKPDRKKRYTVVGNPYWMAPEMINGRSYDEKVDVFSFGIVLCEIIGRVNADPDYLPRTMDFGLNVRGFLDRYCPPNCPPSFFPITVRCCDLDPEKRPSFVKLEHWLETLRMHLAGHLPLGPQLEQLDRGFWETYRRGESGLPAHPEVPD

[33] = system: Mast/stem cell growth factor receptor Kit (Homo sapiens), P10721 [A829P]; settings: Compound concentration 1000.0 nM
[34] = target: Dual specificity mitogen-activated protein kinase kinase 3 (Homo sapiens) (UniProt P46734); settings: Compound concentration 1000.0 nM
[35] = system: Tyrosine-protein kinase ABL1 (Homo sapiens), P00519 [F317L]; settings: Compound concentration 1000.0 nM
[36] = target: Cyclin-dependent kinase 3 (Homo sapiens) (UniProt Q00526); settings: Compound concentration 1000.0 nM
[37] = system: Epidermal growth factor receptor (Homo sapiens), P00533 [G719S]; settings: Compound concentration 1000.0 nM
[38] = target: Cyclin-dependent kinase 19 (Homo sapiens) (UniProt Q9BWU1); settings: Compound concentration 1000.0 nM
Sequence of Cyclin-dependent kinase 19 (Homo sapiens) (Q9BWU1 whole entry): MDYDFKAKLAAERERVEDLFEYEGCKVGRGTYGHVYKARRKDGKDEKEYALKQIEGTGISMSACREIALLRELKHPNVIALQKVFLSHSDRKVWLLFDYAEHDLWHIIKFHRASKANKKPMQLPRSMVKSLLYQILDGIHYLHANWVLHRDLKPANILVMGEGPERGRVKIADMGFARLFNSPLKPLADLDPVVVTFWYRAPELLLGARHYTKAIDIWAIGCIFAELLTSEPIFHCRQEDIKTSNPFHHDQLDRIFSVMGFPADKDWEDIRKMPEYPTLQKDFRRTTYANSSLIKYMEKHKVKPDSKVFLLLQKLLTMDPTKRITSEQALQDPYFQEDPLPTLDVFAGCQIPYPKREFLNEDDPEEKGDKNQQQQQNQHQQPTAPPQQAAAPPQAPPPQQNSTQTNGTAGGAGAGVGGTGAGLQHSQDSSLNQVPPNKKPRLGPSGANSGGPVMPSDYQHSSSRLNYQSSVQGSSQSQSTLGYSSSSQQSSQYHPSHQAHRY

[39] = target: Serine/threonine-protein kinase VRK2 (Homo sapiens) (UniProt Q86Y07); settings: Compound concentration 1000.0 nM
Sequence of Serine/threonine-protein kinase VRK2 (Homo sapiens) (Q86Y07 whole entry): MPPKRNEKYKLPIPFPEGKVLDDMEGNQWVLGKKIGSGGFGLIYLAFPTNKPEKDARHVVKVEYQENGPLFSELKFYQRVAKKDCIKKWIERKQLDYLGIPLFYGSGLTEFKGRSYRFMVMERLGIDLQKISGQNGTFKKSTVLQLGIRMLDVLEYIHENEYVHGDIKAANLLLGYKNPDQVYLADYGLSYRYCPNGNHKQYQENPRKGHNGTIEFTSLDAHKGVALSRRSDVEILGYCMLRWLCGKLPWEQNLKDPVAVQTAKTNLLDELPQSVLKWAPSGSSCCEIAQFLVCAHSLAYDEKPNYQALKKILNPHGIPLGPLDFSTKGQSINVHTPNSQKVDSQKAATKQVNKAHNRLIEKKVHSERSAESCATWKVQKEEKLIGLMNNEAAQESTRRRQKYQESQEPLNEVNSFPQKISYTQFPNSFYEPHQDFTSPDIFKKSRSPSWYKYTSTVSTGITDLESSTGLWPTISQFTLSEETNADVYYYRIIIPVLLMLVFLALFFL

[40] = target: Cyclin-dependent kinase 11A (Homo sapiens) (UniProt Q9UQ88); settings: Compound concentration 1000.0 nM
[41] = target: Cyclin-dependent kinase 13 (Homo sapiens) (UniProt Q14004); settings: Compound concentration 1000.0 nM
[42] = target: Rhodopsin kinase GRK1 (Homo sapiens) (UniProt Q15835); settings: Compound concentration 1000.0 nM
[43] = target: Dual specificity mitogen-activated protein kinase kinase 6 (Homo sapiens) (UniProt P52564); settings: Compound concentration 1000.0 nM
[44] = target: Dual specificity tyrosine-phosphorylation-regulated kinase 1A (Homo sapiens) (UniProt Q13627); settings: Compound concentration 1000.0 nM
[45] = target: Muscle, skeletal receptor tyrosine-protein kinase (Homo sapiens) (UniProt O15146); settings: Compound concentration 1000.0 nM

N#Cc1ccc(Nc2ccc3[nH]c(=O)[nH]c3c2)c(Cl)c1
inactive: residual activity [1] 89% | residual activity [2] 100% | residual activity [3] 100% | residual activity [4] 100% | residual activity [5] 100% | residual activity [6] 100% | residual activity [7] 100% | residual activity [8] 100% | inhibition [9] -2.68% | residual activity [10] 100% | residual activity [11] 95% | residual activity [12] 100% | residual activity [13] 100% | residual activity [14] 96% | residual activity [15] 99% | residual activity [16] 100% | residual activity [17] 99% | residual activity [18] 90% | inhibition [19] 12.6% | residual activity [20] 56% | residual activity [21] 100% | residual activity [22] 100% | residual activity [23] 99% | residual activity [24] 100% | residual activity [25] 92% | residual activity [26] 100% | residual activity [27] 100% | residual activity [28] 92% | residual activity [29] 84% | residual activity [30] 100% | inhibition [31] 14% | residual activity [32] 100% | residual activity [33] 100% | residual activity [34] 75% | residual activity [35] 84% | residual activity [36] 100% | residual activity [37] 100% | residual activity [38] 77% | residual activity [39] 100% | residual activity [40] 97% | residual activity [41] 100% | residual activity [42] 100% | residual activity [43] 80% | residual activity [44] 100% | residual activity [45] 100%

O=C1CCc2cc(Nc3cc(OC4CCOCC4)c([N+](=O)[O-])cc3Cl)ccc2N1
inactive: residual activity [1] 100% | residual activity [2] 100% | residual activity [3] 96% | residual activity [4] 94% | residual activity [5] 100% | residual activity [6] 100% | residual activity [7] 92% | residual activity [8] 79% | inhibition [9] 0.76% | residual activity [10] 96% | residual activity [11] 72% | residual activity [12] 100% | residual activity [13] 100% | residual activity [14] 80% | residual activity [15] 99% | residual activity [16] 92% | residual activity [17] 100% | residual activity [18] 95% | inhibition [19] 16.5% | residual activity [20] 85% | residual activity [21] 100% | residual activity [22] 99% | residual activity [23] 100% | residual activity [24] 100% | residual activity [25] 88% | residual activity [26] 100% | residual activity [27] 92% | residual activity [28] 100% | residual activity [29] 95% | residual activity [30] 87% | inhibition [31] 11.7% | residual activity [32] 100% | residual activity [33] 100% | residual activity [34] 86% | residual activity [35] 88% | residual activity [36] 100% | residual activity [37] 100% | residual activity [38] 72% | residual activity [39] 100% | residual activity [40] 100% | residual activity [41] 100% | residual activity [42] 100% | residual activity [43] 69% | residual activity [44] 80% | residual activity [45] 100%

Source: ChEMBL document CHEMBL4507304, “Data for DCP probe TP-021” (2021)
